Results from US12599136B2, “Substituted isophthalic acid diamides and their use as herbicides” (Bayer Aktiengesellschaft, priority 2020, dated 2026).

Tests used:
Assay type in all cases: in vivo
Abutilon theophrasti [1] = assay: Pre-emergence herbicidal action against ABUTH; settings: visual score after 3 weeks vs untreated controls
Summary of the method: (§1)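 Herbicidal effect was assessed 3 weeks after treatment by visual comparison with untreated controls, 100% denoting dead plants. Aqueous WP or EC preparations had been applied at 600 to 800 l/ha with 0.2% wetting agent to the soil covering freshly sown seeds.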

Alopecurus myosuroides [2] = assay: Pre-emergence herbicidal action against ALOMY; settings: 320 g/ha; visual score after 3 weeks vs untreated controls
Summary of the method: as §1

Amaranthus retroflexus [3] = assay: Pre-emergence herbicidal action against AMARE; settings: visual score after 3 weeks vs untreated controls
Summary of the method: as §1

Avena fatua [4] = assay: Pre-emergence herbicidal action against AVEFA; settings: 320 g/ha; visual score after 3 weeks vs untreated controls
Summary of the method: as §1

Cyperus esculentus [5] = assay: Pre-emergence herbicidal action against CYPES; settings: visual score after 3 weeks vs untreated controls
Summary of the method: as §1

Echinochloa crus-galli [6] = assay: Pre-emergence herbicidal action against ECHCG; settings: visual score after 3 weeks vs untreated controls
Summary of the method: as §1

Matricaria inodora [7] = assay: Pre-emergence herbicidal action against MATIN; settings: visual score after 3 weeks vs untreated controls
Summary of the method: as §1

Pharbitis purpurea [8] = assay: Pre-emergence herbicidal action against PHBPU; settings: 320 g/ha; visual score after 3 weeks vs untreated controls
Summary of the method: as §1

Polygonum convolvulus [9] = assay: Pre-emergence herbicidal action against POLCO
Summary of the method: as §1

Setaria viridis [10] = assay: Pre-emergence herbicidal action against SETVI; settings: 320 g/ha
Summary of the method: as §1

Stellaria media [11] = assay: Pre-emergence herbicidal action against STEME
Summary of the method: as §1

Veronica persica [12] = assay: Pre-emergence herbicidal action against VERPE; settings: 320 g/ha
Summary of the method: as §1

Viola tricolor [13] = assay: Pre-emergence herbicidal action against VIOTR
Summary of the method: as §1

Abutilon theophrasti [14] = assay: Post-emergence herbicidal action against ABUTH
Summary of the method: (§2)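 Post-emergence greenhouse test; one-leaf stage, 2–3 wk post-sowing, sandy loam. Foliar spray of WP/EC in water, 600–800 l/ha, +0.2% wetting agent. Visual % action at ~3 wk vs untreated (100% = plants dead).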

Alopecurus myosuroides [15] = assay: Post-emergence herbicidal action against ALOMY; settings: 80 g/ha
Summary of the method: as §2

Amaranthus retroflexus [16] = assay: Post-emergence herbicidal action against AMARE; settings: visual assessment about 3 weeks after treatment
Summary of the method: as §2

Avena fatua [17] = assay: Post-emergence herbicidal action against AVEFA; settings: 80 g/ha, visual assessment about 3 weeks after treatment
Summary of the method: as §2

Cyperus esculentus [18] = assay: Post-emergence herbicidal action against CYPES; settings: visual assessment about 3 weeks after treatment
Protocol: (§3) Seeds of monocotyledonous and dicotyledonous weed and crop plants are laid out in sandy loam soil in wood-fiber pots, covered with soil and cultivated in a greenhouse under good growth conditions. 2 to 3 weeks after sowing, the test plants are treated at the one-leaf stage. The compounds of the invention, formulated in the form of wettable powders (WP) or as emulsion concentrates (EC), are then sprayed onto the green parts of the plants in the form of an aqueous suspension or emulsion at a water application rate equivalent to 600 to 800 l/ha, with addition of 0.2% wetting agent. After the test plants have been left to stand in the greenhouse under optimal growth conditions for about 3 weeks, the action of the preparations is assessed visually in comparison to untreated controls (herbicidal action in percent (%): 100% activity=the plants have died, 0% activity=like control plants). […] The tables below illustrate, in an illustrative manner, the post-emergence herbicidal action of the compounds of the invention, the herbicidal activity being stated in percent.

Echinochloa crus-galli [19] = assay: Post-emergence herbicidal action against ECHCG; settings: visual assessment about 3 weeks after treatment
Summary of the method: as §2

Matricaria inodora [20] = assay: Post-emergence herbicidal action against MATIN; settings: 80 g/ha, visual assessment about 3 weeks after treatment
Summary of the method: as §2

Pharbitis purpurea [21] = assay: Post-emergence herbicidal action against PHBPU; settings: visual assessment about 3 weeks after treatment
Summary of the method: as §2

Polygonum convolvulus [22] = assay: Post-emergence herbicidal action against POLCO; settings: visual assessment about 3 weeks after treatment
Protocol: as §3

Setaria viridis [23] = assay: Post-emergence herbicidal action against SETVI; settings: 80 g/ha, visual assessment about 3 weeks after treatment
Summary of the method: as §2

Stellaria media [24] = assay: Post-emergence herbicidal action against STEME; settings: visual assessment about 3 weeks after treatment
Summary of the method: as §2

Veronica persica [25] = assay: Post-emergence herbicidal action against VERPE; settings: 80 g/ha, visual assessment about 3 weeks after treatment
Summary of the method: as §2

Viola tricolor [26] = assay: Post-emergence herbicidal action against VIOTR; settings: 80 g/ha
Summary of the method: as §2

## CCCn1nnnc1NC(=O)c1ccc(C(F)(F)F)c(C(=O)N2CCCC2)c1Cl [Example 3-152]
Abutilon theophrasti [1]; 20 g/ha
  Pre-emergence action against ABUTH: 100%
Abutilon theophrasti [1]; 80 g/ha
  Pre-emergence action against ABUTH: 100%
Abutilon theophrasti [1]; Dosage column 320 g/ha (heading prints 3200 g/ha)
  Pre-emergence action against ABUTH: 100%
Alopecurus myosuroides [2]
  Pre-emergence action against ALOMY: 80%
Amaranthus retroflexus [3]; 20 g/ha
  Pre-emergence action against AMARE: 100%
Amaranthus retroflexus [3]; 80 g/ha
  Pre-emergence action against AMARE: 100%
Amaranthus retroflexus [3]; 320 g/ha
  Pre-emergence action against AMARE: 100%
Avena fatua [4]
  Pre-emergence action against AVEFA: 100%
Cyperus esculentus [5]; 80 g/ha
  Pre-emergence action against CYPES: 80%
Cyperus esculentus [5]; 320 g/ha
  Pre-emergence action against CYPES: 90%
Echinochloa crus-galli [6]; 80 g/ha
  Pre-emergence action against ECHCG: 80%
Echinochloa crus-galli [6]; 320 g/ha
  Pre-emergence action against ECHCG: 100%
Matricaria inodora [7]; 20 g/ha
  Pre-emergence action against MATIN: 80%
Matricaria inodora [7]; 80 g/ha
  Pre-emergence action against MATIN: 100%
Matricaria inodora [7]; 320 g/ha
  Pre-emergence action against MATIN: 100%
Pharbitis purpurea [8]
  Pre-emergence action against PHBPU: 100%
Polygonum convolvulus [9]; 80 g/ha
  Pre-emergence action against POLCO: 80%
Polygonum convolvulus [9]; 320 g/ha
  Pre-emergence action against POLCO: 90%
Setaria viridis [10]
  Pre-emergence action against SETVI: 100%
Stellaria media [11]; 20 g/ha
  Pre-emergence action against STEME: 100%
Stellaria media [11]; 80 g/ha
  Pre-emergence action against STEME: 100%
Stellaria media [11]; 320 g/ha
  Pre-emergence action against STEME: 100%
Veronica persica [12]
  Pre-emergence action against VERPE: 100%
Viola tricolor [13]; 80 g/ha
  Pre-emergence action against VIOTR: 90%
Viola tricolor [13]; 320 g/ha
  Pre-emergence action against VIOTR: 90%
Abutilon theophrasti [14]; 5 g/ha
  Post-emergence action against ABUTH: 90%
Abutilon theophrasti [14]; 20 g/ha
  Post-emergence action against ABUTH: 100%
Abutilon theophrasti [14]; 80 g/ha
  Post-emergence action against ABUTH: 100%
Alopecurus myosuroides [15]
  Post-emergence action against ALOMY: 80%
Amaranthus retroflexus [16]; 5 g/ha
  Post-emergence action against AMARE in %: 100%
Amaranthus retroflexus [16]; 20 g/ha
  Post-emergence action against AMARE in %: 100%
Amaranthus retroflexus [16]; 80 g/ha
  Post-emergence action against AMARE in %: 100%
Avena fatua [17]
  Post-emergence action against AVEFA in %: 100%
Cyperus esculentus [18]; 20 g/ha
  Post-emergence action against CYPES in %: 80%
Cyperus esculentus [18]; 80 g/ha
  Post-emergence action against CYPES in %: 80%
Echinochloa crus-galli [19]; 20 g/ha
  Post-emergence action against ECHCG in %: 80%
Echinochloa crus-galli [19]; 80 g/ha
  Post-emergence action against ECHCG in %: 100%
Matricaria inodora [20]
  Post-emergence action against MATIN in %: 90%
Pharbitis purpurea [21]; 20 g/ha
  Post-emergence action against PHBPU in %: 80%
Pharbitis purpurea [21]; 80 g/ha
  Post-emergence action against PHBPU in %: 100%
Polygonum convolvulus [22]; 20 g/ha
  Post-emergence action against POLCO in %: 90%
Polygonum convolvulus [22]; 80 g/ha
  Post-emergence action against POLCO in %: 90%
Setaria viridis [23]
  Post-emergence action against SETVI in %: 100%
Stellaria media [24]; 5 g/ha
  Post-emergence action against STEME in %: 80%
Stellaria media [24]; 20 g/ha
  Post-emergence action against STEME in %: 80%
Stellaria media [24]; 80 g/ha
  Post-emergence action against STEME in %: 90%
Veronica persica [25]
  Post-emergence action against VERPE in %: 80%
Viola tricolor [26]
  Post-emergence action against VIOTR in %: 80%
